Here are results for nine compounds from patent US20230049572A1, “FORMULATION, COMPOSITION OR FOODSTUFF ADDITIVES FOR THE MODIFICATION OF GLYCEMIC RESPONSE METHODS OF MANUFACTURING AND USING THE SAME” (HOOW FOODS PTE. LTD., priority 2019, published 2023).

The term IC50 denotes the concentration that inhibits the measured activity by half.

SMILES strings stand for the structures. Where two headings read alike, the source gives them in different places.

For assay [1] the following is noted: per dose / per meal; cited from earlier work.
Assay [2] has as its target T1, bakers yeast a-glucosidase (Saccharomyces cerevisiae, UniProt P53341).
T1 construct: purchased Sigma-Aldrich
Briefly: In vitro flavonoid inhibition of alpha-glucosidase (pNPG). The assay is classed as biochemical. The procedure: The alpha-glucosidase inhibition was determined using purified alpha-glucosidase from yeast. An alpha-glucosidase reaction mixture contained 2.9 mM p-nitrophenyl-α-d-glucopyranoside (pNPG) (Sigma-Aldrich), 0.25 ml of flavonoid in DMSO and 0.6 U/ml of bakers yeast a-glucosidase (Sigma-Aldrich) in sodium phosphate buffer, pH 6.9. […] The reaction mixtures were incubated at 25° C. for 5 min, after which the reaction was stopped by boiling for 2 min. Absorbance of the resulting p-nitrophenol (pNP) were spectrophotometry determined at 405 nm and was considered directly proportional to the activity of the enzyme. Glucosidase activity inhibition was determined as percentage of control as follows:
In order to eliminate background readings, the absorbance of the flavenoid without substrate and enzyme was subtracted from absorbance of the flavonoid and substrate mixture as follows: Corrected A405 test samples=A405 flavonoid and substrate—A405 flavonoid alone (background).
The activity in controls (with a-glucosidase but without inhibitor) was considered to be 100%. […] Different flavonoids were compared on the basis of their ICso values estimated from the dose response curves.

Another assay relates to alpha amylase. The assay can be described thus: Inhibition of alpha amylase (similar studies). The format is biochemical.
The mark [3] stands for this setting: pNPG 2.9 mM, pH 6.9, 25° C., 5 min, read-out: IC50, inhibition of yeast alpha-glucosidase.

T1 sequence (P53341 whole entry): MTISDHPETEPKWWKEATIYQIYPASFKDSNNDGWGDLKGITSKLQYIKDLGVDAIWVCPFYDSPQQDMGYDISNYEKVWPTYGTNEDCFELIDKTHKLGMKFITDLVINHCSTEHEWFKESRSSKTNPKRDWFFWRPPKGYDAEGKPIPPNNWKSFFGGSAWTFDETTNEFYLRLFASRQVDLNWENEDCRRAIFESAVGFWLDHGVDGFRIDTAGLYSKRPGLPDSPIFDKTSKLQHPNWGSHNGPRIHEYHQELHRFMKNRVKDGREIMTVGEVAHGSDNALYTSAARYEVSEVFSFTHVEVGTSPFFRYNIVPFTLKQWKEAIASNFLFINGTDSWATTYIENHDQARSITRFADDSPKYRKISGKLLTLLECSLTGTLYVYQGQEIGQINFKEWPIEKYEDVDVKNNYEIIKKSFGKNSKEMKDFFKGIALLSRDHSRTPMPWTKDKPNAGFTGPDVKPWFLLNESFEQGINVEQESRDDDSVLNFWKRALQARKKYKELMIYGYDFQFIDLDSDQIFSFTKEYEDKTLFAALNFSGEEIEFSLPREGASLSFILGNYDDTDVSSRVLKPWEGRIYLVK

As to `OC[C@H]1NC[C@H](O)[C@@H](O)[C@@H]1O` [1-DNJ, 1-deoxynojirimycin], the “upper efficacy limit / saturation dose above which no further reduction in glycemic response is obtained” value in assay [1] is on record as 250 mg.

Turning to `O=c1cc(-c2ccc(O)cc2)oc2cc(O)cc(O)c12` [Apigenin], the IC50 in assay [2] came out at 90 µM.

As for `O=c1cc(-c2ccccc2)oc2cc(O)c(O)c(O)c12` [Baicalein], the IC50 in assay [2] came to 58 µM.

As for `O=c1cc(-c2ccccc2)oc2cc(O)cc(O)c12` [Chrysin], the inhibition at 200 µM in assay [2] (read-out: inhibition of yeast alpha-glucosidase at fixed concentration) is less than 20%.

Take `O=C1c2c(O)cc(O)cc2O[C@H](c2cc(O)c(O)c(O)c2)[C@H]1O` [Dihydromyricetin, (2R,3R)-3,5,7-Trihydroxy-2-(3,4,5-trihydroxyphenyl)-2,3-dihydrochromen-4-one]: in the assay on alpha amylase, the “inhibition of amylase (in words)” value is given as “effective at inhibiting amylase”. In addition, in assay [2], the 50% inhibitory concentration (IC50) amounted to 4 µM and the “enzyme inhibition (in words)” value is given as “powerful enzyme inhibitors”.

For the compound `O=c1cc(-c2ccc(O)c(O)c2)oc2cc(O)cc(O)c12` [Luteolin], the IC50 in assay [2] (setting [3]) worked out at 35 µM.

In the case of `O=c1c(O)c(-c2cc(O)c(O)c(O)c2)oc2cc(O)cc(O)c12` [Myricetin, 3,5,7-Trihydroxy-2-(3,4 trihydroxyphenyl)-4-chromenone], the “inhibition of amylase (in words)” value in the assay on alpha amylase is “effective at inhibiting amylase”. For the same compound, in assay [2], the IC50 was 3.6 µM and the “enzyme inhibition (in words)” value is on record as “powerful enzyme inhibitors”.

For `O=C(CCc1ccc(O)cc1)c1c(O)cc(O)cc1O` [Phloretin], in assay [2] (setting [3]), the IC50 was 96 µM.

For the compound `O=c1c(O)c(-c2ccc(O)c(O)c2)oc2cc(O)cc(O)c12` [Quercetin, 2-(3,4-dihydroxyphenyl)-3,5,7-trihydroxy-4H-chromen-4-one], in the assay with alpha amylase, the “inhibition of amylase (in words)” value was “effective at inhibiting amylase”. Moreover, in assay [2], the “enzyme inhibition (in words)” value is reported as “powerful enzyme inhibitors”.
